The values below come from US20240124422A1, “MUTANT PI3K-ALPHA INHIBITORS AND THEIR USE AS PHARMACEUTICALS” (Prelude Therapeutics Incorporated, priority 2022, published 2024).

By IC50 is commonly meant the midpoint of a concentration-inhibition curve.

For one assay, the system named is phosphorylation of AKT on Ser473 as a readout of the PI3K pathway in T-47D (heterozygous PIK3CA H1047R) cells. As to the kind of experiment: PI3K pathway activation assay, pAKT Ser473 HTRF, T-47D cells. The settings on record: Homo sapiens, T47D, 2 h, two hours of treatment. The assay is classed as cell-based. The method, then: The inhibitory activity of compounds was evaluated by measuring phosphorylation of AKT on Ser473 as a readout of the PI3K pathway using HTRF (CisBio catalog number: 64AKSPE). These studies were conducted in the T-47D (heterozygous PIK3CA H1047R) and SKBR3 (PIK3CA WT) cell lines. Cells were maintained in a 37° C. incubator at 5% CO2 in the following media: T-47D: RPMI 1640, ATCC© Modification (Gibco, A10491-01) supplemented with 10% v/v FBS (Gibco, 26140-079), 1% penicillin streptomycin (Gibco, 15140-122), and 7.4 ug/mL insulin (MilliporeSigma, I9278); SKBR3: McCoy's 5a (Modified) Medium (Gibco, 16600-082) supplemented with 10% v/v FBS (Gibco, 26140-079). Cells were seeded in 384-well plates at a density of 4,000 cells/well. Compounds dissolved in DMSO were added using a digital dispense (D300E, Tecan) 10-point serial dilution. After two hours of treatment, cells were lysed for thirty minutes and then incubated with detection reagents per HTRF kit material and manufacturer's instructions. Fluorescence signal was measured with a multimode plate reader (Envision 2105, Perkin Elmer). Fluorescent signal was normalized to background and DMSO controls to obtain percent inhibition/activity for each compound.
A general note: Time-resolved FRET reads energy transfer from a long-lived donor to a nearby acceptor.
Compound `Cc1cc(C(C)Nc2ccccc2C(=O)O)c2nc(N3CCN(C(=O)C4CCCC4)CC3)n(C)c(=O)c2c1` (stereo not drawn) [Example 91, 2-((1-(2-(4-(Cyclopentanecarbonyl)piperazin-1-yl)-3,6-dimethyl-4-oxo-3,4-dihydroquinazolin-8-yl)ethyl)amino)benzoic acid] registered an IC50 of less than 0.5 µM.

For the compound `Cc1cc(C(C)Nc2ccccc2C(=O)O)c2nc(N3CCN(C(=O)C45CC(F)(C4)C5)CC3)n(C)c(=O)c2c1` (stereo not drawn) [Example 92, 2-((1-(2-(4-(3-Fluorobicyclo[1.1.1]pentane-1-carbonyl)piperazin-1-yl)-3,6-dimethyl-4-oxo-3,4-dihydroquinazolin-8-yl)ethyl)amino)benzoic acid], the IC50 was 0.5 to 10 µM.

In turn, `COCC(=O)N1CCN(c2nc3c(C(C)Nc4ccccc4C(=O)O)cc(C)cc3c(=O)n2C)CC1` (stereo not drawn) [Example 93, 2-((1-(2-(4-(2-Methoxyacetyl)piperazin-1-yl)-3,6-dimethyl-4-oxo-3,4-dihydro-quinazolin-8-yl)ethyl)amino)benzoic acid] displayed a concentration for half-maximal inhibition (IC50) of 0.5 to 10 µM.

In the case of `Cc1cc(C(C)Nc2ccccc2C(=O)O)c2nc(N3CCN(C(=O)c4ccc(C)nc4)CC3)n(C)c(=O)c2c1` (stereo not drawn) [Example 94, 2-((1-(3,6-Dimethyl-2-(4-(6-methylnicotinoyl)piperazin-1-yl)-4-oxo-3,4-dihydro-quinazolin-8-yl)ethyl)amino)benzoic acid], the IC50 was less than 0.5 µM.

Compound `Cc1cc(C(Nc2ccccc2C(=O)O)C(F)F)c2nc(N3CC4CC4C3)n(C)c(=O)c2c1` (stereo not drawn) [Example 96, 2-((1-(2-(3-azabicyclo[3.1.0]hexan-3-yl)-3,6-dimethyl-4-oxo-3,4-dihydro-quinazolin-8-yl)-2,2-difluoroethyl)amino)benzoic acid] returned a half-maximal inhibitory concentration (IC50) of 0.5 to 10 µM.

Turning to `CCC(Nc1ccccc1C(=O)O)c1cc(C)cc2c(=O)n(C)c(N3CC4CC4C3)nc12` (stereo not drawn) [Example 97, 2-((1-(2-(3-azabicyclo[3.1.0]hexan-3-yl)-3,6-dimethyl-4-oxo-3,4-dihydro-quinazolin-8-yl)propyl)amino)benzoic acid], the IC50 lay within 0.5 to 10 µM.

In turn, `Cc1cc(C(C)Nc2ccccc2C(=O)O)c2nc(N3CC4CC4C3)n(C(F)F)c(=O)c2c1` (stereo not drawn) [Example 102, 2-((1-(2-(3-Azabicyclo[3.1.0]hexan-3-yl)-3-(difluoromethyl)-6-methyl-4-oxo-3,4-dihydroquinazolin-8-yl)ethyl)amino)benzoic acid] registered an IC50 of 0.5 to 10 µM.

In turn, `Cc1cc(C(C)Nc2ccccc2C(=O)O)c2nc(N3CC4CC4C3)n(CC(F)(F)F)c(=O)c2c1` (stereo not drawn) [Example 103, 2-((1-(2-(3-Azabicyclo[3.1.0]hexan-3-yl)-6-methyl-4-oxo-3-(2,2,2-trifluoroethyl)-3,4-dihydroquinazolin-8-yl)ethyl)amino)benzoic acid] showed an IC50 of 0.5 to 10 µM.

`Cc1cc(C(C)Nc2ccccc2C(=O)O)c2nc(N3CC4(CCC4(F)F)C3)n(C)c(=O)c2c1` (stereo not drawn) [Example 106, 2-[1-[2-(7,7-difluoro-2-azaspiro[3.3]heptan-2-yl)-3,6-dimethyl-4-oxoquinazolin-8-yl]ethylamino]benzoic acid] gave an IC50 of less than 0.5 µM.

As to `Cc1cc(C(C)Nc2ccccc2C(=O)O)c2nc(N3CCC4(CC3)CC(NC(=O)OC(C)(C)C)C4)n(C)c(=O)c2c1` (stereo not drawn) [Example 107, 2-[1-[3,6-dimethyl-2-[2-[(2-methylpropan-2-yl)oxycarbonylamino]-7-azaspiro[3.5]nonan-7-yl]-4-oxoquinazolin-8-yl]ethylamino]benzoic acid], the IC50 fell in the range of 0.5 to 10 µM.

In turn, `Cc1cc(C(C)Nc2ccccc2C(=O)O)c2nc(N3CCC4(CC3)CN(C(=O)OC(C)(C)C)C4)n(C)c(=O)c2c1` (stereo not drawn) [Example 108, 2-[1-[3,6-dimethyl-2-[2-[(2-methylpropan-2-yl)oxycarbonyl]-2,7-diazaspiro[3.5]nonan-7-yl]-4-oxoquinazolin-8-yl]ethylamino]benzoic acid] returned an IC50 of 0.5 to 10 µM.

For the compound `Cc1cc(C(C)Nc2ccccc2C(=O)O)c2nc(N3CC4(C3)CC(F)(F)C4)n(C)c(=O)c2c1` (stereo not drawn) [Example 109, 2-[1-[2-(6,6-difluoro-2-azaspiro[3.3]heptan-2-yl)-3,6-dimethyl-4-oxoquinazolin-8-yl]ethylamino]benzoic acid], the half-maximal inhibitory concentration (IC50) is less than 0.5 µM.

The compound `Cc1cc(C(C)Nc2ccccc2C(=O)O)c2nc(N3CCC(NC(=O)OC(C)(C)C)C3)n(C)c(=O)c2c1` (stereo not drawn) [Example 110, 2-[1-[3,6-dimethyl-2-[3-[(2-methylpropan-2-yl)oxycarbonylamino]pyrrolidin-1-yl]-4-oxoquinazolin-8-yl]ethylamino]benzoic acid] gave an IC50 of 0.5 to 10 µM.

On to `Cc1cc(C(C)Nc2ccccc2C(=O)O)c2nc(N3C4CCC3CC4)n(C)c(=O)c2c1` (stereo not drawn) [Example 111, 2-[1-[2-(7-azabicyclo[2.2.1]heptan-7-yl)-3,6-dimethyl-4-oxoquinazolin-8-yl]ethylamino]benzoic acid], for which the IC50 was less than 0.5 µM.

For `Cc1cc(C(C)Nc2ccccc2C(=O)O)c2nc(N3CC4CCC4C3)n(C)c(=O)c2c1` (stereo not drawn) [Example 112, 2-[1-[2-(3-azabicyclo[3.2.0]heptan-3-yl)-3,6-dimethyl-4-oxoquinazolin-8-yl]ethylamino]benzoic acid], the IC50 is less than 0.5 µM.

With `Cc1cc(C(C)Nc2ccccc2C(=O)O)c2nc(N3C[C@H]4CCC[C@H]4C3)n(C)c(=O)c2c1` (stereo partly drawn) [Example 113, 2-[1-[3,6-dimethyl-4-oxo-2-[(3aR,6aS)-3,3a,4,5,6,6a-hexahydro-1H-cyclopenta[c]pyrrol-2-yl]quinazolin-8-yl]ethylamino]benzoic acid], the IC50 is less than 0.5 µM.

On to `Cc1cc(C(C)Nc2ccccc2C(=O)O)c2nc(N3CCCC34CC4)n(C)c(=O)c2c1` (stereo not drawn) [Example 114, 2-((1-(3,6-dimethyl-4-oxo-2-(4-azaspiro[2.4]heptan-4-yl)-3,4-dihydroquinazolin-8-yl)ethyl)amino)benzoic acid], for which the IC50 was 0.5 to 10 µM.

In turn, `Cc1cc(C(C)Nc2ccccc2C(=O)O)c2nc(N3CCCC3(C)C)n(C)c(=O)c2c1` (stereo not drawn) [Example 115, 2-((1-(2-(2,2-dimethylpyrrolidin-1-yl)-3,6-dimethyl-4-oxo-3,4-dihydroquinazolin-8-yl)ethyl)amino)benzoic acid] returned an IC50 of less than 0.5 µM.

The assay is the same for the next values; noted with them: two hours of treatment, read-out: T47D pAKT IC50.
Turning to `COCCN(C)C(=O)[C@H]1[C@@H]2CN(c3nc4c(C(C)Nc5ccccc5C(=O)O)cc(C)cc4c(=O)n3C)C[C@@H]21` (stereo partly drawn) [Example 87, 2-((1-(2-((1R,5S,6R)-6-((2-Methoxyethyl)(methyl)carbamoyl)-3-azabicyclo[3.1.0]hexan-3-yl)-3,6-dimethyl-4-oxo-3,4-dihydroquinazolin-8-yl)ethyl)amino)benzoic acid], the IC50 lay in the range of 0.5 to 10 µM.

For the compound `Cc1cc(C(C)Nc2ccccc2C(=O)O)c2nc(N3C[C@@H]4C(C(=O)N(C)c5cccnc5)[C@@H]4C3)n(C)c(=O)c2c1` (stereo partly drawn) [Example 88, 2-((1-(3,6-Dimethyl-2-((1R,5S,6R)-6-(methyl(pyridin-3-yl)carbamoyl)-3-azabicyclo[3.1.0]hexan-3-yl)-4-oxo-3,4-dihydroquinazolin-8-yl)ethyl)amino)benzoic acid], the IC50 is 0.5 to 10 µM.

Consider `CNC(=O)C1[C@H]2CN(c3nc4c(C(C)Nc5ccccc5C(=O)O)cc(C)cc4c(=O)n3C)C[C@@H]12` (stereo partly drawn) [Example 89, 2-((1-(3,6-Dimethyl-2-((1R,5S,6R)-6-(methylcarbamoyl)-3-azabicyclo[3.1.0]hexan-3-yl)-4-oxo-3,4-dihydroquinazolin-8-yl)ethyl)amino)benzoic acid], for which the IC50 lay within 0.5 to 10 µM.
